From US6903107B1, “Serine protease inhibitor” (Akzo Nobel N.V., priority 1998, dated 2005)

Target: T1, Human thrombin (Homo sapiens, UniProt P00734)
T1 construct: purchased Centraal Laboratorium voor Bloedtransfusie, Amsterdam, The Netherlands
Assay: Anti-thrombin assay (hydrolysis of chromogenic substrate S-2238)
Type: biochemical
Settings: chromogenic substrate S-2238, TNP buffer, pH 7.4, 37° C.; read-out: Antithrombin activity: IC50
Experimental: Thrombin (Factor IIa) is a factor in the coagulation cascade. The anti-thrombin activity of compounds of the present invention was assessed by measuring spectrophotometrically the rate of hydrolysis of the chromogenic substrate s-2238 exterted by thrombin. This assay for anti-thrombin activity in a buffer system was used to assess the IC50-value of a test compound.
Test medium: Tromethamine-NaCl-polyethylene glycol 6000 (TNP) buffer
Reference compound: 12581 (Kabi)
Vehicle: TNP buffer. Solubilisation can be assisted with dimethylsulphoxide, methanol, ethanol, acetonitrile or tert.-butyl alcohol which are without adverse effects in concentrations up to 2.5% in the final reaction mixture.
Technique Reagents* • 1. Tromethamine-NaCl (TN) buffer Composition of the buffer:
• The pH of the solution is adjusted to 7.4 at 37° C. with HCl (10 mmol.l^−1). • 2. TNP buffer Polyethylene glycol 6000 is dissolved in TN buffer to give a concentration of 3 g.l^−1. • 3. S-2238 solution One vial S-2238 (25 mg; Kabi Diagnostica, Sweden) is dissolved in 20 ml TN buffer to give a concentration of 1.25 mg.ml^−1 (2 mmol.l^−1). • 4. Thrombin solution Human thrombin (16 000 nKat.vial^−1; Centraal Laboratorium voor Bloedtransfusie, Amsterdam, The Netherlands) is dissolved in TNP buffer to give a stock solution of 835 nKat.ml^−1. Immediately before use this solution is diluted with TNP buffer to give a concentration of 3.34 nKat.ml^−1. • All ingredients used are of analytical grade • For aqueous solutions ultrapure water (Milli-Q quality) is used.
Preparation of test and reference compound solutions
The test and reference compounds are dissolved in Milli-Q water to give stock concentrations of 10^−2 mol.l^−1. Each concentration is stepwise diluted with the vehicle to give concentrations of 10^−3, 10^−4 and 10^−5 mol.l^−1. The dilutions, including the stock solution, are used in the assay (final concentrations in the reaction mixture: 3·10^−3; 10^−3; 3·10^−4; 10^−4; 3.10^−5; 10^−5; 3.10^−6 and 10^−6 mol.l^−1, respectively).
At room temperature 0.075 ml and 0.025 ml test compound or reference compound solutions or vehicle are alternately pipetted into the wells of a microtiter plate and these solutions are diluted with 0.115 ml and […] TNP buffer, respectively. An aliquot of 0.030 ml S-2238 solution is added to each well and the plate is pre-heated and pre-incubated with shaking in an incubator (Amersham) for 10 min. at 37° C. Following pre-incubation the hydrolysis of S-2238 is started by addition of 0.030 ml thrombin solution to each well. The plate is incubated (with shaking for 30 s) at 37° C. Starting after 1 min of incubation, the absorbance of each sample at 405 nm is measured every 2 min. for a period of 90 min. using a kinetic microtiter plate reader (Twinreader plus, Flow Laboratories). All data are collected in an IBM personal computer using LOTUS-MEASURE. For each compound concentration (expressed in mol.l^−1 reaction mixture) and for the blank the absorbance is plotted versus the reaction time in min.
Evaluation of responses: For each final concentration the maximum absorbance was calculated from the assay plot. The IC50-value (final concentration, expressed in μmol.l^−1, causing 50% inhibition of the maximum absorbance of the blank) was calculated using the logit transformation analysis according to Hafner et al. (Arzneim.-Forsch./Drug Res. 1977; 27(II): 1871-3).

Row | Compound | IC50 [nM]
1 | Nc1nccc2cc(OCCC3CCCCN3C(=O)C(CC3CCCCC3)NCC(=O)Nc3ccccc3)ccc12 [Example 10, 1-(N-anilinocarbonylmethyl-D-cyclohexylalaninyl)-2-(2-(1-amino-isoquinolin-6-oxy)-ethyl)-piperidine] | 1350
2 | 1-(N-cyclooctyl-γ-tert-butyl-L-glutamyl)-2-(2-(1-amino-isoquinolin-6-oxy)-ethyl)-piperidine [Example 8] | 610

Compounds with a lower IC50, results first:

Row | IC50 [nM] | Compound
3 | 320 | Nc1nccc2cc(OCCC3CCCCN3C(=O)C(CC3CCCCC3)NCC(=O)NC3CCCC3)ccc12 [Example 9, 1-(N-cyclopentylaminocarbonylmethyl-D-cyclohexylalaninyl)-2-(2-(1-amino-isoquinolin-6-oxy)-ethyl)-piperidine]
4 | 410 | CC1(C)C2CCC1(CS(=O)(=O)NC(CC1CCCCC1)C(=O)N1CCCCC1CCOc1ccc3c(N)nccc3c1)C(=O)C2 [Example 1, (2S)-1-(N-(−)-camphorsulphonyl-D-cyclohexylalaninyl)-2-(2-(1-amino-isoquinolin-6-oxy)-eythyl)-piperidine]
5 | 500 | Nc1nccc2cc(OCCC3CCCCN3C(=O)C(CC3CCCCC3)NC3CCCCC3)ccc12 [Example 11, 1-(N-cyclohexyl-D-cyclohexylalanine)-2-(2-(1-amino-isoquinolin-6-oxy)-ethyl)-piperidine]
